As usually defined, the TGI is the concentration giving total growth inhibition. High values mean less potent growth arrest, low ones more potent growth arrest.

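Where inhibition never reached the appropriate level, the endpoint shown equals the highest concentration tested. Otherwise, values were interpolated linearly from a five-concentration, 48-hour dose response in 96-well plates. TGI marks complete inhibition of growth.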 Where a SMILES comes first, the peptide text is derived from it. [ ]: non-standard residue; d: D form. The star is where a group is joined. ξ: configuration not given here. NMeF = CN[CH](Cc1ccccc1)C(=O)O; ξNMe2Val = CC(C)C(C(=O)*)N(C)C; NMeV = CN[CH](C(=O)O)C(C)C; ξNMeV = CNC(C(=O)O)C(C)C; Boc = CC(C)(C)OC(=O)*; OBn = c1ccc(CO*)cc1; OtBu = CC(C)(C)O*

Among the test systems are MCF7 breast; DU-145 prostate; PC-3 prostate; HCT-15 colon; HCC-2998 colon; CAKI-1 renal; OVCAR-4 ovarian; SF-295 CNS; COLO 205 colon; BT-549 breast.
What all share (test): DTP human tumour cell line panel, 48 h

With `CCN(CC)CCC1CCCCN1CC(=O)N1c2cc(Cl)ccc2NC(=O)CC1C` (stereo not given), the TGI in the assay with MCF7 breast, in the assay with DU-145 prostate, in the assay on PC-3 prostate, with HCT-15 colon, in the assay with HCC-2998 colon and with CAKI-1 renal was greater than 100 µM each time. Moreover, the TGI in the assay on OVCAR-4 ovarian, in the assay with SF-295 CNS and in the assay on COLO 205 colon was greater than 100 µM throughout.
With `COc1ccc([C@H]2CC3C(=O)N(c4ccc(OC)cc4)C(=O)C3c3[nH]c4ccccc4c32)cc1` (stereo not given in full), the TGI is greater than 100 µM in the assay on HCT-15 colon; greater than 100 µM with HCC-2998 colon; greater than 100 µM with CAKI-1 renal; greater than 100 µM in the assay on OVCAR-4 ovarian; 78.3 µM in the assay with SF-295 CNS; greater than 100 µM in the assay with COLO 205 colon.
Regarding `CN(C)CCC[N+]1=Nc2cccc3cccc(c23)N1`, the TGI with HCT-15 colon, with HCC-2998 colon, with CAKI-1 renal, with OVCAR-4 ovarian and in the assay with SF-295 CNS was greater than 100 µM in each case.
Take `CC(C)C(C(=O)N(C)[C@H](C(=O)N1CCC[C@H]1C(=O)N(C)[C@@H](Cc1ccccc1)C(=O)OCc1ccccc1)C(C)C)N(C)C(=O)[C@@H](NC(=O)OC(C)(C)C)C(C)C` (stereo not given in full) (Boc-V[ξNMeV][NMeV]P[NMeF]-OBn): the TGI in the assay on HCT-15 colon is greater than 31.6 µM; in the assay with CAKI-1 renal, greater than 31.6 µM; with OVCAR-4 ovarian, greater than 100 µM; with SF-295 CNS, greater than 31.6 µM; in the assay with COLO 205 colon it was 35.2 µM.
For the compound `Brc1ccc(-c2cc3c(cc2C2SCCS2)OCO3)cc1`, the TGI in the assay with HCT-15 colon, in the assay on HCC-2998 colon, in the assay on OVCAR-4 ovarian, with SF-295 CNS and in the assay on COLO 205 colon was greater than 100 µM each time.
Turning to `O=C(CC(C(=O)c1cccs1)c1ccsc1)c1ccc(Cl)s1` (stereo not given), the TGI in the assay with MCF7 breast, with DU-145 prostate, in the assay on PC-3 prostate, in the assay on HCT-15 colon, with HCC-2998 colon and in the assay on CAKI-1 renal was greater than 100 µM in each case. Moreover, the TGI with OVCAR-4 ovarian and in the assay with COLO 205 colon was greater than 100 µM each time.
On to `Cc1nn2c(c1C#N)NNc1c-2sc(=N)nnc1=O`, for which the total growth inhibition concentration (TGI) in the assay on CAKI-1 renal, in the assay with OVCAR-4 ovarian, with SF-295 CNS and in the assay with COLO 205 colon was greater than 100 µM in each case.
For `O=C1CN(c2cccc(C(F)(F)F)c2)C(=O)CN1CCN1CC(=O)N(c2cccc(C(F)(F)F)c2)CC1=O`, the TGI with MCF7 breast, in the assay with PC-3 prostate, in the assay with HCT-15 colon, with HCC-2998 colon, in the assay with OVCAR-4 ovarian and with SF-295 CNS was greater than 100 µM throughout. In the assay on COLO 205 colon, the TGI was greater than 100 µM.
On to `CC(C)C(C(=O)N(C)C(Cc1ccccc1)C(=O)N(C)C(C(=O)N(C)C(C(=O)N1CCCC1C(=O)OC(C)(C)C)C(C)C)C(C)C)N(C)C` (stereo not given) (ξNMe2Val-[NMeF][NMeV][NMeV]P-OtBu; configuration not given here), for which the total growth inhibition concentration (TGI) was greater than 100 µM in the assay with HCT-15 colon, 53.3 µM in the assay with HCC-2998 colon, greater than 100 µM in the assay on SF-295 CNS and greater than 100 µM in the assay on COLO 205 colon.
In the case of `CCCCCCCCCCCC[N+]12CC[N+](C)(CC1)CC2`, the TGI was 23 µM in the assay with HCC-2998 colon; 30.9 µM in the assay on CAKI-1 renal; greater than 100 µM in the assay on OVCAR-4 ovarian; greater than 100 µM in the assay with SF-295 CNS; 16.9 µM in the assay on COLO 205 colon.
In the case of `N#COc1ccc(Oc2ccc(OC#N)cc2)cc1`, the TGI in the assay with HCT-15 colon is greater than 100 µM; in the assay on HCC-2998 colon it was greater than 100 µM; in the assay on CAKI-1 renal, greater than 100 µM; with OVCAR-4 ovarian, greater than 100 µM; in the assay on SF-295 CNS, greater than 100 µM; in the assay with COLO 205 colon it was 54 µM.
On to `CSC(C1c2ccccc2N(C)c2[nH]c(=O)n(C)c(=O)c21)S(=O)(=O)c1ccc(C)cc1` (stereo not given), for which the TGI in the assay on HCT-15 colon, with HCC-2998 colon, with CAKI-1 renal, with OVCAR-4 ovarian, in the assay with SF-295 CNS and in the assay with COLO 205 colon was greater than 100 µM throughout.
Turning to `CC(=O)OCC1OC(N=[N+]=[N-])C(OC(C)=O)C(OC(C)=O)C1OC1OC(COC(C)=O)C(OC(C)=O)C(OC(C)=O)C1OC(C)=O` (stereo not given), the TGI with HCT-15 colon, in the assay with HCC-2998 colon, with CAKI-1 renal, in the assay with OVCAR-4 ovarian, with SF-295 CNS and in the assay on COLO 205 colon was greater than 100 µM in each case.
On to `O=C1Nc2ccc(Br)cc2/C1=N/N1C(=O)C(=O)N(C2CCCCC2)C1=S`, for which the TGI in the assay with MCF7 breast worked out at 15.6 µM; in the assay on DU-145 prostate, 23.1 µM; in the assay on PC-3 prostate it was 25.9 µM; with HCT-15 colon, 10.4 µM; in the assay with HCC-2998 colon, 13.5 µM; in the assay with CAKI-1 renal, 12.3 µM. Besides, the concentration for total growth inhibition (TGI) in the assay on OVCAR-4 ovarian worked out at 22.6 µM; with SF-295 CNS, 15.4 µM; in the assay on COLO 205 colon, 10.4 µM.
For `CCOC(=O)N1CCC2(CC1)C[C@@](C(C)=O)(c1ccccc1)C(C)O2` (stereo not given in full), the TGI with MCF7 breast, in the assay on DU-145 prostate, with PC-3 prostate, in the assay on HCT-15 colon, in the assay on HCC-2998 colon and with CAKI-1 renal was greater than 100 µM throughout. The TGI in the assay with OVCAR-4 ovarian, in the assay on SF-295 CNS and in the assay on COLO 205 colon was greater than 100 µM each time.
As for `CCSc1nc(N/N=C/c2cccs2)c2cnn(CO)c2n1`, the TGI in the assay on MCF7 breast was 14.4 µM; in the assay with DU-145 prostate, 24.3 µM; in the assay on PC-3 prostate, 21.4 µM; in the assay with HCT-15 colon it was 15.7 µM; with CAKI-1 renal, 13.7 µM; in the assay with OVCAR-4 ovarian, greater than 100 µM. Further, the figures for the TGI with SF-295 CNS and with COLO 205 colon were 29.8 µM and 29.7 µM, respectively.
Turning to `COc1ccc(/C=C/C(=O)c2ccc(Br)cc2)cc1`, the total growth inhibition concentration (TGI) with MCF7 breast, in the assay with DU-145 prostate, with PC-3 prostate, in the assay on HCT-15 colon, with HCC-2998 colon and with CAKI-1 renal was greater than 100 µM throughout. For the same compound, the TGI with OVCAR-4 ovarian, in the assay with SF-295 CNS and in the assay on COLO 205 colon was greater than 100 µM each time.
For the compound `O=C(O)c1nn(-c2ccccc2)nc1-c1nn(-c2ccccc2)nc1C(=O)O`, the TGI with MCF7 breast, with DU-145 prostate, in the assay on PC-3 prostate, with HCT-15 colon, in the assay on HCC-2998 colon and with CAKI-1 renal was greater than 100 µM each time. Moreover, the TGI in the assay on OVCAR-4 ovarian, in the assay with SF-295 CNS and in the assay on COLO 205 colon was greater than 100 µM each time.
Consider `CCO/C(O)=c1/s/c(=C(\C#N)c2nc3ccccc3[nH]2)n(-c2ccccc2)c1=N`, for which the TGI in the assay on HCT-15 colon, with CAKI-1 renal, with OVCAR-4 ovarian, with SF-295 CNS and in the assay with COLO 205 colon was greater than 100 µM throughout.
Take `COC(=O)C(CCC1(C)OCCO1)=[N+]=[N-]`: the TGI in the assay with HCT-15 colon, in the assay on HCC-2998 colon, in the assay with OVCAR-4 ovarian, in the assay with SF-295 CNS and with COLO 205 colon was greater than 100 µM each time.
Take `CCCN(CCC)C(=O)c1c(N2CCN(C)CC2)c2cccnc2n2c(C)cnc12`: the TGI with MCF7 breast, with DU-145 prostate, in the assay on PC-3 prostate, in the assay on HCT-15 colon, in the assay with CAKI-1 renal and in the assay on OVCAR-4 ovarian was greater than 100 µM each time. Moreover, the TGI with SF-295 CNS and in the assay with COLO 205 colon was greater than 100 µM each time.
Take `Cc1ccc(NC(=O)C2C3CCC(O3)C2C(=O)O)cc1` (stereo not given): the TGI in the assay with HCT-15 colon is greater than 65.3 µM; in the assay with HCC-2998 colon it was greater than 100 µM; with CAKI-1 renal, greater than 100 µM; with OVCAR-4 ovarian, greater than 100 µM; in the assay on SF-295 CNS, greater than 100 µM; in the assay with COLO 205 colon, greater than 59.8 µM.
On to `O=c1[nH]c2ccc(CC(=S)N3CCOCC3)cc2o1`, for which the TGI in the assay on MCF7 breast, in the assay with BT-549 breast, in the assay with PC-3 prostate, in the assay on HCT-15 colon, in the assay on CAKI-1 renal and with SF-295 CNS was greater than 100 µM throughout. Also, the TGI in the assay with COLO 205 colon is greater than 100 µM.
As for `CC(NNC(=O)c1ccncc1)c1cccc(C(F)(F)F)c1` (stereo not given), the TGI in the assay with MCF7 breast, with DU-145 prostate, in the assay on PC-3 prostate, in the assay on HCT-15 colon, in the assay with HCC-2998 colon and in the assay with CAKI-1 renal was greater than 100 µM each time. In addition, the concentration for total growth inhibition (TGI) in the assay on OVCAR-4 ovarian, in the assay on SF-295 CNS and with COLO 205 colon was greater than 100 µM each time.
Regarding `Cc1ccc(S(=O)(=O)N(CCNC(=O)c2cccc(O)c2O)c2cc3c4c(c2)Oc2cccc5c2C4(C)c2c(cccc2O3)O5)cc1`, the TGI with MCF7 breast, in the assay on DU-145 prostate, in the assay on PC-3 prostate, in the assay on HCT-15 colon, in the assay on HCC-2998 colon and with CAKI-1 renal was greater than 100 µM in each case. Besides, the TGI in the assay with OVCAR-4 ovarian and in the assay with SF-295 CNS was greater than 100 µM in each case.
On to `C=C(C)CCC1C=[N+]([O-])OC(C)(C)C1(C)C` (stereo not given), for which the TGI with MCF7 breast, with DU-145 prostate, in the assay with HCT-15 colon, in the assay on HCC-2998 colon, in the assay on CAKI-1 renal and in the assay on SF-295 CNS was greater than 100 µM in each case. The TGI in the assay with COLO 205 colon was greater than 100 µM.

The values above are taken from PubChem BioAssay (NCI).
